Experiment: Sensory tasting of the active ingredients (mouth-watering and/or tingling effect) by a trained expert panel
Type: in vivo, human
Details: for Sensory Rating (profile in words): 3 to 7 tasters; for Sensory Rating: intensity of mouth-watering and/or tingling/fizzing effect (figure in brackets): 50 ppm, scale of 1 (very weak) to 10 (very strong)
Method: The sensory tasting of the active ingredients according to the invention was carried out as follows: • (1) The active ingredients were each prepared in a 5% sugar solution or in an unflavored standard fondant mass. Fondant is the name for a soft, pasty sugar mass that is used to make various confectionery products. Fondant is made from water and sucrose as well as glucose syrup, invert sugar cream and/or sugar alcohols (e.g., sorbitol or mannitol). The mixture is boiled and then processed into a soft paste by kneading it vigorously and cooling it quickly. • (2) The concentration of the active ingredients was 25 or 50 ppm. • (3) The test samples were tested under practical conditions by a panel of experts with sensory training. For tasting, 3 to 7 tasters each rinsed their mouths with approx. 5 ml of the sugar solution and spat the solution out again. The mouth-watering and/or tingling effect was assessed on a scale of 1 (very weak) to 10 (very strong) and the profile evaluated.

[1] = 50 ppm in 5% sugar solution or unflavored fondant mass
[2] = 25 ppm in 5% sugar solution or unflavored fondant mass

SMILES: COc1ccc(C(=O)N2CCCN(CCc3ccccc3)CC2)cc1OC [Compound 32, (3,4-Dimethoxy-phenyl)-[4-(2-phenyl-ethyl)-1,4-diazepan-1-yl]methanone]
- Sensory Rating (profile in words) [1]: very slightly tingling/ fizzing (1), slightly metallic taste
- Sensory Rating: intensity of mouth-watering and/or tingling/fizzing effect (figure in brackets): very slightly tingling/ fizzing (1), slightly metallic taste

SMILES: COc1ccc(C(=O)N2CCN(Cc3ccccc3)CC2)cc1OC [Compound 33, (4-benzylpiperazin-1-yl)-(3,4-dimethoxy-phenyl)methanone]
- Sensory Rating (profile in words) [1]: very slightly tingling/ fizzing (1-2), slightly like marzipan
- Sensory Rating: intensity of mouth-watering and/or tingling/fizzing effect (figure in brackets): very slightly tingling/ fizzing (1-2), slightly like marzipan

SMILES: COc1ccc(C(=O)N2CCN(CCCCc3ccccc3)CC2)cc1 [Compound 34, (4-Methoxy-phenyl)-[4-(4-phenyl-butyl)piperazin-1-yl]methanone]
- Sensory Rating (profile in words) [2]: tingling/ fizzing and mouth-watering effect, neutral taste
- Sensory Rating (profile in words) [1]: strongly mouth-watering/ tingling/fizzing
- Sensory Rating: intensity of mouth-watering and/or tingling/fizzing effect (figure in brackets): 6

SMILES: COc1ccc(C(=O)N2CCN(CCc3ccccc3)CC2)cc1 [Compound 35, (4-Methoxy-phenyl)-[4-(2-phenyl-ethyl)piperazin-1-yl]methanone]
- Sensory Rating (profile in words) [2]: slightly mouth-watering
- Sensory Rating (profile in words) [1]: slightly tingling/ fizzing (3) and mouth-watering, Acid taste, Honey note
- Sensory Rating: intensity of mouth-watering and/or tingling/fizzing effect (figure in brackets): 3

SMILES: COc1ccc(C(=O)N2CCN(CCC3CCCCC3)CC2)cc1 [Compound 36, [4-(2-cyclo-hexylethyl)piperazin-1-yl]-(4-methoxy-phenyl) methanone]
- Sensory Rating (profile in words) [1]: slightly tingling/fizzing (3), metallic taste
- Sensory Rating: intensity of mouth-watering and/or tingling/fizzing effect (figure in brackets): slightly tingling/fizzing (3), metallic taste

SMILES: COc1ccc(C(=O)N2CCC(CCCc3ccccc3)CC2)cc1 [Compound 37, (4-Methoxy-phenyl)-[4-(3-phenyl-propyl)-1-piperidyl]methanone]
- Sensory Rating (profile in words) [1]: slightly tingling/ fizzing (2), light fruity note
- Sensory Rating: intensity of mouth-watering and/or tingling/fizzing effect (figure in brackets): slightly tingling/ fizzing (2), light fruity note

SMILES: COc1ccc(C(=O)N2CCN(CCCc3ccccc3)CC2)cc1 [Compound 38, (4-Methoxy-phenyl)-[4-(3-phenylpropyl)piperazin-1-yl] methanone]
- Sensory Rating (profile in words) [2]: slightly mouth-watering, anesthetic
- Sensory Rating (profile in words) [1]: remarkably tingling/fizzing (6), numbing, Increasing effect over time
- Sensory Rating: intensity of mouth-watering and/or tingling/fizzing effect (figure in brackets): 6

SMILES: COc1ccc(C(=O)N2CCN(Cc3ccccc3)CC2)cc1 [Compound 40, (4-benzylpiperazin-1-yl)-(4-methoxy-phenyl)methanone]
- Sensory Rating (profile in words) [1]: mouth-watering, neutral, slightly tingling/ fizzing (1-2)
- Sensory Rating: intensity of mouth-watering and/or tingling/fizzing effect (figure in brackets): mouth-watering, neutral, slightly tingling/ fizzing (1-2)

SMILES: CCOc1ccc(C(=O)N2CCN(CCCCc3ccccc3)CC2)cc1 [Compound 41, (4-ethoxyphenyl)-[4-(4-phenyl-butyl)piperazin-1-yl]methanone]
- Sensory Rating (profile in words) [2]: metallic, mouth- watering effect
- Sensory Rating (profile in words) [1]: strong mouth- watering effect (8), long-lasting, Slightly hot
- Sensory Rating: intensity of mouth-watering and/or tingling/fizzing effect (figure in brackets): 8

SMILES: CCOc1ccc(C(=O)N2CCN(C/C=C/c3ccccc3)CC2)cc1 [Compound 42, [4-[(E)-cinnamyl]piperazin-1-yl]-(4-ethoxy-phenyl)methanone]
- Sensory Rating (profile in words) [1]: slightly tingling (3-4), and mouth- watering, fruity, creamy, Vanilla flavor
- Sensory Rating: intensity of mouth-watering and/or tingling/fizzing effect (figure in brackets): slightly tingling (3-4), and mouth- watering, fruity, creamy, Vanilla flavor

SMILES: CCOc1ccc(C(=O)N2CCN(CCc3ccccc3)CC2)cc1 [Compound 43, (4-ethoxyphenyl)-[4-(2-phenylethyl)piperazin-1-yl]methanone]
- Sensory Rating (profile in words) [2]: metallic, slightly numbing, tingling/fizzing and mouth- watering effect
- Sensory Rating (profile in words) [1]: strongly bitter, metallic, tingling/fizzing (7) , and mouth-watering effect
- Sensory Rating: intensity of mouth-watering and/or tingling/fizzing effect (figure in brackets): 7

SMILES: CCOc1ccc(C(=O)N2CCN(CCC3CCCCC3)CC2)cc1 [Compound 44, [4-(2-cyclo-hexylethyl)piperazin-1-yl]-(4-ethoxy-phenyl)methanone]
- Sensory Rating (profile in words) [1]: slightly tingling/fizzing (4), and mouth-watering
- Sensory Rating: intensity of mouth-watering and/or tingling/fizzing effect (figure in brackets): slightly tingling/fizzing (4), and mouth-watering

SMILES: CCOc1ccc(C(=O)N2CCC(CCCc3ccccc3)CC2)cc1 [Compound 45, (4-ethoxyphenyl)-[4-(3-phenyl-propyl)-1-piperidyl]-methanone]
- Sensory Rating (profile in words) [1]: slightly tin- gling/ fizzing (2)
- Sensory Rating: intensity of mouth-watering and/or tingling/fizzing effect (figure in brackets): slightly tin- gling/ fizzing (2)

SMILES: CCOc1ccc(C(=O)N2CCN(CCCc3ccccc3)CC2)cc1 [Compound 46, (4-ethoxyphenyl)-[4-(3-phenyl-propyl)piperazin-1-yl]methanone]
- Sensory Rating (profile in words) [2]: metallic, slightly numbing, tingling and mouth- watering effect
- Sensory Rating (profile in words) [1]: strong, bitter, metallic and tingling/fizzing (7), and mouth-watering effect
- Sensory Rating: intensity of mouth-watering and/or tingling/fizzing effect (figure in brackets): 7

SMILES: CCOc1ccc(C(=O)N2CCCN(CCc3ccccc3)CC2)cc1 [Compound 47, (4-ethoxyphenyl)-[4-(2-phenylethyl)-1,4-diazepan-1-yl]methanone]
- Sensory Rating (profile in words) [1]: Strong mouth-watering and tingling/fizzing effect (6), Pleasant taste
- Sensory Rating: intensity of mouth-watering and/or tingling/fizzing effect (figure in brackets): Strong mouth-watering and tingling/fizzing effect (6), Pleasant taste

SMILES: CCOc1ccc(C(=O)N2CCN(Cc3ccccc3)CC2)cc1 [Compound 48, (4-benzylpiperazin-1-yl)-(4-ethoxy-phenyl)methanone]
- Sensory Rating (profile in words) [1]: slightly tingling/ fizzing (1-2)
- Sensory Rating: intensity of mouth-watering and/or tingling/fizzing effect (figure in brackets): slightly tingling/ fizzing (1-2)
